# Laboratory results taken from ChEMBL document CHEMBL1125018, “Evidence for nitroxyl in the catalase-mediated bioactivation of the alcohol deterrent agent cyanamide” (J Med Chem, 1990).
# Several values for one entry are separate records, joined by “and”; a condition that tells them apart may be missing. Equal values may be shown once.
# Legend:
# [1] = Nitrous oxide formed in the oxidation of 15NH2-labeled cyanamide by catalase/glucose-glucose oxidase using gas chromatography.
# [2] = Nitrous oxide formed in the oxidation of U-labeled [N15]-cyanamide by catalase/glucose-glucose oxidase using gas chromatography
# [3] = Nitrous oxide formed in the oxidation of unlabeled cyanamide by catalase/glucose-glucose oxidase using gas chromatography.
compound,measurement,setting,value
N#CN,N20 formed,[1],186 nM
same,N20 formed,[2],538 nM
same,N20 formed,[3],497 nM and 440 nM
